We go through three compounds from patent US20240270810A1, “PREPARATION AND APPLICATION OF POLYPEPTIDE” (GUANGDONG RAYNOVENT BIOTECH CO., LTD., priority 2021, published 2024).

In one experiment the target is T1, GLP-1R (Homo sapiens, UniProt P43220).
T1 construct: host or cells: HEK293
The experiment can be described thus: In vitro GLP-1R agonistic activity test (cAMP kit). The note with it: HEK293 host cells, without 1% HSA. In kind it is cell-based. As for the experimental part:
(§1) The cell lines were constructed by Wuxi […] (Shanghai) Co., Ltd. See details in Table 1 below. [table] [table] The test compounds were diluted at a 4-fold dilution factor in 10 points, starting from an initial concentration of 30 μM. The dilution was carried out by Bravo. • 1) 100 nL of compounds were transferred to an OptiPlate-384 plate by Echo. • 2) The OptiPlate-384 plate was centrifuged at 1000 rpm for 5 s. • 1) A GLP-1R/GIPR cell cryovial was placed in warm water at 37° C. for rapid thawing. • 2) The cell suspension was transferred into a 15 mL Transfer centrifugal tube and rinsed with 10 mL of HBSS gently. • 3) The centrifugal tube was centrifuged at 1000 rpm at room temperature for 1 min. • 4) The supernatant was discarded. • 5) The bottom cells were gently dispersed, then gently rinsed with 10 mL of HBSS, the centrifugal tube was centrifuged to settle the cells, and finally the cells were resuspended in an experimental buffer. • 6) Cell density and viability were measured by Vi-cell. • 7) The GLP-1R/GIPR cells were diluted with the experimental buffer to a concentration of 2.0*10^5/mL. • 8) […] of the diluted cell suspension was transferred into the OptiPlate-384 plate. • 9) Incubation was performed at room temperature for 30 min. • 1) 10 μL of 800 nM gradient diluted cAMP standard was added into the empty wells of the OptiPlate-384 plate. • 2) 10 μL of cAMP assay reagent was added. • 3) The OptiPlate-384 plate was covered with TopSeal-A film and incubated at room temperature for 60 min. The TopSeal-A film was removed, and readout was performed on En Vision.

The next experiment concerns the target T2, GIPR (Homo sapiens, UniProt P48546).
T2 construct: host or cells: CHO
T2 sequence (P48546 22-466): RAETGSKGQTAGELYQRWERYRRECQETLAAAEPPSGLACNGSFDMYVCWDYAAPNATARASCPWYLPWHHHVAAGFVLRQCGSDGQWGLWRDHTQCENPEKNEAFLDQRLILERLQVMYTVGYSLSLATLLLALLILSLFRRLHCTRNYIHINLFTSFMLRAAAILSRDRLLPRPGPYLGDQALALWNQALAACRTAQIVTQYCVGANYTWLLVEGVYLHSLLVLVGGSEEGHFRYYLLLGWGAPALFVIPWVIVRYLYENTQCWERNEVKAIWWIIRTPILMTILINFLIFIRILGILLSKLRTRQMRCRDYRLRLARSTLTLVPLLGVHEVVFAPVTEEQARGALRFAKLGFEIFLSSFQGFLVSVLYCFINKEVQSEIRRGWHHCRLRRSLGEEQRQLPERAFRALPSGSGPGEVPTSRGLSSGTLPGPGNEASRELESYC
The experiment can be described thus: In vitro GIPR agonistic activity test (cAMP kit). Type of experiment: cell-based. The note with it: CHO host cells, without 1% HSA. As for the experimental part:
as §1, with “[table] [table]” left out

*1 amine or outer side, *2 acyl side, *3 side chain or, on linkers, in order; H or OH if unused. Where a SMILES comes first, the peptide text is derived from it. Bridges are numbered along the chain shown (N, C = ends). [ ]: non-standard residue; d: D form. X1 = O=C(O)CCCCCCCCCCCCCCCCCCC(=O)N[C@@H](CCC(=O)NCCOCCOCC(=O)NCCOCCOCC(=O)N[C@@H](CCC(=O)[*:1])C(=O)[*:2])C(=O)O; Aib = CC(C)(N)C(=O)O

T1 sequence (P43220 24-463, species assumed): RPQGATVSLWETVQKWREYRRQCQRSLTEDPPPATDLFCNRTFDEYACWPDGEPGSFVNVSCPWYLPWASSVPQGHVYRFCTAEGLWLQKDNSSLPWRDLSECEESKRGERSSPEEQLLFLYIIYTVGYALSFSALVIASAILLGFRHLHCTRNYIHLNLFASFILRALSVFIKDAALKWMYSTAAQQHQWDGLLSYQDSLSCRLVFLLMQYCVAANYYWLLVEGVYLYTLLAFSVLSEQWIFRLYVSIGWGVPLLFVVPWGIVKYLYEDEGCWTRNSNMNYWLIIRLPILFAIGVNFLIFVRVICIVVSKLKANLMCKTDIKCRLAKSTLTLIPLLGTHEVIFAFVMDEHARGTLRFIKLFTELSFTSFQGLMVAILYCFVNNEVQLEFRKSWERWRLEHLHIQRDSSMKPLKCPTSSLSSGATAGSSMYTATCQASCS

`CC[C@H](C)[C@H](NC(=O)[C@H](CC(C)C)NC(=O)[C@H](Cc1c[nH]c2ccccc12)NC(=O)[C@H](CCC(=O)O)NC(=O)[C@@H](NC(=O)[C@H](Cc1ccccc1)NC(=O)[C@H](C)NC(=O)[C@@H]1CCCCNC(=O)[C@@H](NC(=O)COCCOCCNC(=O)COCCOCCNC(=O)CC[C@H](NC(=O)CCCCCCCCCCCCCCCCCCC(=O)O)C(=O)O)CCC(=O)NCCCC[C@H](NC(=O)[C@H](CCCCN)NC(=O)[C@H](CC(=O)O)NC(=O)[C@H](CC(C)C)NC(=O)C(C)(C)NC(=O)[C@@H](NC(=O)[C@H](CO)NC(=O)[C@H](Cc2ccc(O)cc2)NC(=O)[C@H](CC(=O)O)NC(=O)[C@H](CO)NC(=O)[C@@H](NC(=O)[C@H](Cc2ccccc2)NC(=O)[C@@H](NC(=O)CNC(=O)[C@H](CCC(=O)O)NC(=O)C(C)(C)NC(=O)[C@@H](N)Cc2ccc(O)cc2)[C@@H](C)O)[C@@H](C)O)[C@@H](C)CC)C(=O)N[C@@H](C)C(=O)N[C@@H](CCC(N)=O)C(=O)N1)C(C)C)C(=O)N[C@@H](C)C(=O)NCC(=O)NCC(=O)N1CCC[C@H]1C(=O)N[C@@H](CO)C(=O)N[C@@H](CO)C(=O)NCC(=O)N[C@@H](C)C(=O)N1CCC[C@H]1C(=O)N1CCC[C@H]1C(=O)N1CCC[C@H]1C(=O)N[C@@H](CO)C(N)=O` [WX-011] (H-Y[Aib]EGTFTSDYSI[Aib]LDKKAQKAFVEWLIAGGPSSGAPPPS-NH2; linker 17-20 via X1): the EC50 (in general, the concentration that produces a half-maximal response) on GLP-1R was 0.018 nM; at GIPR it was 0.25 nM.
`CC[C@H](C)[C@H](NC(=O)[C@H](CC(C)C)NC(=O)[C@H](Cc1c[nH]c2ccccc12)NC(=O)[C@H](CCC(=O)O)NC(=O)[C@@H](NC(=O)[C@H](Cc1ccccc1)NC(=O)[C@H](C)NC(=O)[C@@H]1CCCCNC(=O)CN(C(=O)COCCOCCNC(=O)COCCOCCNC(=O)CC[C@H](NC(=O)CCCCCCCCCCCCCCCCC(=O)O)C(=O)O)CC(=O)NCCCC[C@H](NC(=O)[C@H](CCCCN)NC(=O)[C@H](CC(=O)O)NC(=O)[C@H](CC(C)C)NC(=O)C(C)(C)NC(=O)[C@@H](NC(=O)[C@H](CO)NC(=O)[C@H](Cc2ccc(O)cc2)NC(=O)[C@H](CC(=O)O)NC(=O)[C@H](CO)NC(=O)[C@@H](NC(=O)[C@H](Cc2ccccc2)NC(=O)[C@@H](NC(=O)CNC(=O)[C@H](CCC(=O)O)NC(=O)C(C)(C)NC(=O)[C@@H](N)Cc2ccc(O)cc2)[C@@H](C)O)[C@@H](C)O)[C@@H](C)CC)C(=O)N[C@@H](C)C(=O)N[C@@H](CCC(N)=O)C(=O)N1)C(C)C)C(=O)N[C@@H](C)C(=O)NCC(=O)NCC(=O)N1CCC[C@H]1C(=O)N[C@@H](CO)C(=O)N[C@@H](CO)C(=O)NCC(=O)N[C@@H](C)C(=O)N1CCC[C@H]1C(=O)N1CCC[C@H]1C(=O)N1CCC[C@H]1C(=O)N[C@@H](CO)C(N)=O` [WX-012]: the EC50 was found to be 0.024 nM on GLP-1R and 0.17 nM at GIPR.
As to `CC[C@H](C)[C@H](NC(=O)[C@H](CC(C)C)NC(=O)[C@H](Cc1c[nH]c2ccccc12)NC(=O)[C@H](CCC(=O)O)NC(=O)[C@@H](NC(=O)[C@H](Cc1ccccc1)NC(=O)[C@H](C)NC(=O)[C@@H]1CCCCNC(=O)CN(C(=O)COCCOCCNC(=O)COCCOCCNC(=O)CC[C@H](NC(=O)CC[C@H](NC(=O)CCCCCCCCCCCCCCCCCCC(=O)O)C(=O)O)C(=O)O)CC(=O)NCCCC[C@H](NC(=O)[C@H](CCCCN)NC(=O)[C@H](CC(=O)O)NC(=O)[C@H](CC(C)C)NC(=O)C(C)(C)NC(=O)[C@@H](NC(=O)[C@H](CO)NC(=O)[C@H](Cc2ccc(O)cc2)NC(=O)[C@H](CC(=O)O)NC(=O)[C@H](CO)NC(=O)[C@@H](NC(=O)[C@H](Cc2ccccc2)NC(=O)[C@@H](NC(=O)CNC(=O)[C@H](CCC(=O)O)NC(=O)C(C)(C)NC(=O)[C@@H](N)Cc2ccc(O)cc2)[C@@H](C)O)[C@@H](C)O)[C@@H](C)CC)C(=O)N[C@@H](C)C(=O)N[C@@H](CCC(N)=O)C(=O)N1)C(C)C)C(=O)N[C@@H](C)C(=O)NCC(=O)NCC(=O)N1CCC[C@H]1C(=O)N[C@@H](CO)C(=O)N[C@@H](CO)C(=O)NCC(=O)N[C@@H](C)C(=O)N1CCC[C@H]1C(=O)N1CCC[C@H]1C(=O)N1CCC[C@H]1C(=O)N[C@@H](CO)C(N)=O` [WX-013], the values for the EC50 at GLP-1R and at GIPR were 0.057 nM and 0.18 nM, respectively.
